From patent US6812252B2, “Acylsulfonamide derivatives” (Ajinomoto Co., Inc., priority 2000, dated 2004)

melting point	SMILES
183 to 186 °C	CCCCCC(=O)NS(=O)(=O)c1ccccc1NC(=O)c1ccc(C#Cc2cccc(F)c2)cc1 [Example 9, 4-(3-Fluoro)phenylethynyl-N-(2-hexanoylaminosulfonylphenyl)benzamide]
179 to 181 °C	CC(=O)CCCC(=O)NS(=O)(=O)c1ccccc1NC(=O)c1ccc(C#Cc2ccc(F)cc2)cc1 [Example 8, 4-(4-Fluoro)phenylethynyl-N-(2-(5-ketohexanoylamino)sulfonylphenyl)benzamide]
183 to 186 °C	CCCCCC(=O)NS(=O)(=O)c1ccccc1NC(=O)c1ccc(C#Cc2ccc(F)cc2)cc1 [Example 7, 4-(4-Fluoro)phenylethynyl-N-(2-hexanoylaminosulfonylphenyl)benzamide]

More lines, now with the values behind:

SMILES	melting point
CC(=O)CCCC(=O)NS(=O)(=O)c1ccccc1NC(=O)c1ccc(C#Cc2ccc(OC(F)(F)F)cc2)cc1 [Example 6, 4-(4-Trifluoromethoxy)phenylethynyl-N-(2-(5-ketohexanoylamino)-sulfonylphenyl)benzamide]	204 to 205 °C
CCCCCC(=O)NS(=O)(=O)c1ccccc1NC(=O)c1ccc(C#Cc2cccc(C(F)(F)F)c2)cc1 [Example 1, 4-(3-Trifluoromethyl)phenylethynyl-N-(2-hexanoylaminosulfonylphenyl)benzamide]	194 to 196 °C
CCCCCC(=O)NS(=O)(=O)c1ccccc1NC(=O)c1ccc(C#Cc2ccc(OC(F)(F)F)cc2)cc1 [Example 5, 4-(4-Trifluoromethoxy)phenylethynyl-N-(2-hexanoylaminosulfonylphenyl)benzamide]	197 to 199 °C
CCCOCC(=O)NS(=O)(=O)c1ccccc1NC(=O)c1ccc(C#Cc2cccc(C(F)(F)F)c2)cc1 [Example 3, 4-(3-Trifluoromethyl)phenylethynyl-N-(2-(2-propyloxyacetylamino)sulfonylphenyl)benzamide]	175 to 177 °C
CCCCCC(=O)NS(=O)(=O)c1ccccc1NC(=O)c1ccc(C#Cc2ccc(C(F)(F)F)cc2)cc1 [Example 4, 4-(4-Trifluoromethyl)phenylethynyl-N-(2-hexanoylaminosulfonylphenyl)benzamide]	210 to 212 °C
CC(=O)CCCC(=O)NS(=O)(=O)c1ccccc1NC(=O)c1ccc(C#Cc2cccc(C(F)(F)F)c2)cc1 [Example 2, 4-(3-Trifluoromethyl)phenylethynyl-N-(2-(5-ketohexanoylamino)-sulfonylphenyl)benzamide]	169 to 171 °C
